# Like-named read-outs stand apart in the source and are kept apart here.
# How the values were obtained:
# [1] = system: LL29 cells (primary human fibroblasts derived from IPF patients), α-smooth muscle actin; assay: Inhibition of fibrotic process: αSMA in TGF-β1-treated primary human fibroblasts from IPF patients (LL29 cells); assay type: cell-based; settings: for EC50: % αSMA-positive LL29 cells, TGF-β1 20 ng/mL, 4 days; for inhibition at 10 µM: read-out: percent inhibition at 10 μM
# In short: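 Read-out is the percentage of αSMA-positive cells by high-content imaging, excluding SYTOX green-positive dead/apoptotic cells, normalized to TGF-β1-only wells on the same plate. LL29 cells were exposed for 4 days at 37 °C to 20 ng/mL TGF-β1 plus 11-point, 2-fold compound dilutions in 0.1% DMSO.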
# [2] = system: IL-6; assay: IL-6 inhibition in LPS-stimulated human peripheral blood mononuclear cells (HTRF); assay type: cell-based; settings: for inhibition at 10 µM: read-out: percent value in parentheses below EC50 >10; for EC50: IL-6, LPS-stimulated huPBMCs, HTRF
# In short: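 EC50 from a 4-parameter fit of DMSO-normalized HTRF (665/620 nm) IL-6 signal, duplicates. Compound was added to fresh human PBMCs in 1% FBS RPMI for 2 h (top 10 μM, 3-fold, 0.25% DMSO) before 22 h stimulation with LPS at 50 ng/mL, 37 °C.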
# [3] = target: GSK3β kinase (Homo sapiens (Human), UniProt P49841); assay: GSK3β kinase assay (Ser/Thr 09 peptide Z-lyte, FRET); assay type: biochemical; settings: method text calls the value IC50;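 note: Coumarin/fluorescein emission ratio converted to percent phosphorylation against unphosphorylated (0%) and phosphorylated (100%) controls, 1 h compound incubation at room temperature, 11-point threefold dilutions from 10 µM, run in duplicate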
# [4] = target: DYRK1A kinase (Homo sapiens (Human), UniProt Q13627); assay: DYRK1A kinase assay (Ser/Thr 18 peptide Z-lyte, FRET)
# [5] = system: Wnt activity (Sp5-Luc reporter in SW480 colon carcinoma cells); assay: Wnt activity screening assay (Sp5-Luc reporter gene assay); assay type: cell-based, human; settings: for EC50: Sp5-Luc reporter, SW480 cells, 36 to 48 hours
# In short: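 Compounds at 10 points (1:3 steps, top 10 μM, 0.1% DMSO final) were incubated 36 to 48 h at 37° C with stable Sp5-Luc SW480 reporter cells in 1% FBS medium. Luciferase luminescence was then read and expressed relative to DMSO-only cells. Four-parameter variable-slope fitting yielded EC50 values.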
# [6] = system: Tau phosphorylation at Ser396 (pSer396), SH-SY5Y cells; assay: Tau phosphorylation at Ser396 (pSer396) in SH-SY5Y cells, ELISA/western blot; assay type: cell-based, human; settings: SH-SY5Y cells, overnight (16-18 h), read-out: pSer396 Tau EC50;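 note: cell lysates probed for reduced Tau pSer396 via ELISA (colorimetric) or western blot (chemiluminescence), both with one shared pSer396 antibody, EC50 for lowering phosphorylation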
# [7] = system: SW480 colon carcinoma cells; assay: Cell viability assay (CellTiter-Glo) in SW480 cells; assay type: cell-based, human; settings: for EC50: cell viability, SW480 cells, four days, CellTiter-Glo; for inhibition at 10 µM: SW480, read-out: percent inhibition at 10 μM;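 for all read-outs here: SW480 cells stably carrying an Sp5-luciferase TCF/LEF reporter, luminescent ATP signal as viability measure, DMSO-treated cells as control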
# Chain of GSK3β kinase (P49841 whole entry): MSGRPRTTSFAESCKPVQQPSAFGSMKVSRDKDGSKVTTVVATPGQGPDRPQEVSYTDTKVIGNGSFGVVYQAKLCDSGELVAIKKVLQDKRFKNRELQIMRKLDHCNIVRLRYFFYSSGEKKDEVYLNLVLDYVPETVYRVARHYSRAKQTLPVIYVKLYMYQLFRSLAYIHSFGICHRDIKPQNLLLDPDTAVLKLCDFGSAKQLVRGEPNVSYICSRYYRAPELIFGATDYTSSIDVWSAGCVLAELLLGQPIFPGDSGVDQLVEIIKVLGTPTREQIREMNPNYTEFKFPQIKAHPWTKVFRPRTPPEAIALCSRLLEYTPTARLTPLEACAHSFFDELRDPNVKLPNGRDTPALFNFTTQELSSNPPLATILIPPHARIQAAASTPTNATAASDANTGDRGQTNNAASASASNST
Compound,"EC50 ([1]; Homo sapiens, Fibroblast, 96 h)","inhibition at 10 µM ([1]; Homo sapiens, Fibroblast)","inhibition at 10 µM ([2]; Homo sapiens, PBMC)","EC50 ([2]; Homo sapiens, PBMC)",EC50 [3],EC50 [4],EC50 ([5]; Homo sapiens),EC50 ([6]; Homo sapiens),"EC50 ([7]; Homo sapiens, 96 h)",inhibition at 10 µM ([7]; Homo sapiens),"inhibition at 10 µM ([5]; Homo sapiens, SW480, read-out: percent inhibition at 10 μM)",EC50 [1],EC50 [2],"EC50 ([4]; DYRK1A kinase, method text calls the value IC50)",EC50 [5],EC50 [6],EC50 [7]
"Cn1cc(-c2ccc3cnc(NC(=O)c4cc[n+]([O-])c(N5CC[N+](C)([O-])CC5)c4)cc3c2)nn1 [Compound 225, 1-methyl-4-(4-((6-(1-methyl-1H-1,2,3-triazol-4-yl)isoquinolin-3-yl)carbamoyl)-1-oxidopyridin-2-yl)piperazine 1-oxide]",> 10 µM,24.8%,6.9%,> 10 µM,0.407 µM,0.002 µM,3.85 µM,> 10 µM,> 10 µM,28.7%,–,–,–,–,–,–,–
"[2H]C([2H])([2H])[N+]1([O-])CCN(c2cc(C(=O)Nc3cc4cc(-c5cn(C)nn5)ccc4cn3)ccn2)CC1 [Compound 226, 1-(Methyl-d3)-4-(4-((6-(1-methyl-1H-1,2,3-triazol-4-yl)isoquinolin-3-yl)carbamoyl)pyridin-2-yl)piperazine 1-oxide]",> 10 µM,33.2%,4.5%,> 10 µM,1.19 µM,0.004 µM,> 10 µM,> 10 µM,> 10 µM,46.9%,31.6%,–,–,–,–,–,–
"trans-N-(6-(2-methyloxazol-5-yl)isoquinolin-3-yl)-4-((propan-2-yl-1,1,1,3,3,3-d6)amino)cyclohexane-1-carboxamide [Compound 141]",–,–,–,–,0.05 µM,–,–,–,–,–,–,0.321 µM,0.388 µM,0.009 µM,2.78 µM,0.594 µM,1.57 µM

# — US10604514B2, “6-(5-membered heteroaryl)isoquinolin-3-yl carboxamides and preparation and use thereof” (Samumed, LLC, priority 2017, dated 2020)
